Assay results published in US9096608B2, “Pharmaceutically active pyrazolo-triazine derivatives” (LEAD DISCOVERY CENTER GMBH, priority 2012, dated 2015).

Key:
Format in all cases: biochemical
CDK9/Cyclin T1 = target: T1, CDK9/Cyclin T1 (Homo sapiens, UniProt P50750); assay: CDK9 Enzymatic Activity Assay (Lance Kinase Activity Assay, FRET); settings: Table 5B; symbols per IC50 ranges of b615
T1 construct: purchased Invitrogen
Experimental: (§1) This protocol describes how the Lance Kinase Activity Assay was performed to determine IC50 values of compounds of general formula (I) against CDK/Cyclin complexes. The principle behind this enzymatic assay is based upon the phosphorylation of the Ulight-Peptide Substrat. It is detected by using a specific EU-labeled anti-phospho peptide antibody.
(§2) Binding of an inhibitor to the kinase prevents phosphorylation of the ULlight-MBP Substrat, resulting in a loss of FRET.
CDK9 Enzymatic Activity Assay
(§3) The compounds of general formula (I) exemplary summarized in Table 1 were diluted from a 10 mM DMSO stock solution 1:10 in a total volume of 15 μl DMSO. This compound predilution was then serial diluted 1:3 over 8 steps in DMSO and briefly spun down. Each compound solution was now diluted 1:20 in Enzymatic Buffer (HEPES: 50 mM, pH: 7.5; MgCl2: 10 mM; EGTA: 1 mM; DTT: 2 mM; Tween-20: 0.01%), mixed thoroughly and spun down.
(§4) For positive controls, 2 μl of DMSO working solution were mixed with 6 μl CDK9/cyclin T1/substrate working solution and 2 μl ATP working solution. Positive and negative controls were calculated from at least 8 different wells. The 384 well plates were mixed in a Teleshaker plate mixer (Beckman Coulter, Brea, Calif., USA) at 2000 rpm for 40 sec, and incubated for 1 h at room temperature before addition of 10 μl LANCE Detection Buffer (1×; EDTA: […]; Eu-Anti-P-MBP: 4 nM) per well. Plates were mixed in a Teleshaker plate mixer (Beckman Coulter, Brea, Calif., USA) at 2000 rpm for sec, followed by incubation with Detection Buffer for 1 h, and reading. […] IC50 values were determined from the sigmoidal dose response curves with the software Quattro Workflow (Quattro GmbH, Munich, Germany).

CDK2/CycA = target: T2, CDK2/CycA (Homo sapiens, UniProt P24941); assay: CDK2 Enzymatic Activity Assay (Lance Kinase Activity Assay, FRET); settings: Table 5B; symbols per IC50 ranges of b615
T2 construct: purchased Proqinase
Experimental: as §1, §2
CDK2 Enzymatic Activity Assay
as §3
as §4, with “CDK2/CycA/substrate” for “CDK9/cyclin T1/substrate”, “(EDTA:” for “(1×; EDTA:”

CDK7/CycH/Mat1 = target: T3, CDK7/CycH/Mat1 (Homo sapiens, UniProt P50613); assay: CDK7 Enzymatic Activity Assay (Lance Kinase Activity Assay, FRET); settings: Table 5A; 25 μM ATP final; read-out: CDK7: IC50 [mM] for CDK7 inhibition (the above defined ranges apply)
T3 construct: purchased Carna
T3 sequence (P50613 whole entry): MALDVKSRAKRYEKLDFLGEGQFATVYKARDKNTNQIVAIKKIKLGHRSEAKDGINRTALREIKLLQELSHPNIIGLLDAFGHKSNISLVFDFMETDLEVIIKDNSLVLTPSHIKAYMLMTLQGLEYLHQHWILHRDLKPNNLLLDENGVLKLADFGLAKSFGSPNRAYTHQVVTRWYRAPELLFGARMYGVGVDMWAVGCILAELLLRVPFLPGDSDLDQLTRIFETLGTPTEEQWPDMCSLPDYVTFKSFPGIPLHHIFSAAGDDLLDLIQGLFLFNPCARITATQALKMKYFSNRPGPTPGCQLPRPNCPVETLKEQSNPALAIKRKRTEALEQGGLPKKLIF
T3 sequence (P51946 whole entry partner): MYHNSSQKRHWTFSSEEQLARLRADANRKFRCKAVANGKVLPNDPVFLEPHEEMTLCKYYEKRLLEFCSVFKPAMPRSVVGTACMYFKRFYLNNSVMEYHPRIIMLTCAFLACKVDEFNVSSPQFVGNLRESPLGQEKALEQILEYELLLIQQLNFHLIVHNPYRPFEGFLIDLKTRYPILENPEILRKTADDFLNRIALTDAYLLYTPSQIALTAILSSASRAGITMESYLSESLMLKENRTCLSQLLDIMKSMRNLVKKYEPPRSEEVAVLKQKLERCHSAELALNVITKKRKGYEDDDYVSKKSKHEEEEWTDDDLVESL
T3 sequence (P51948 whole entry partner): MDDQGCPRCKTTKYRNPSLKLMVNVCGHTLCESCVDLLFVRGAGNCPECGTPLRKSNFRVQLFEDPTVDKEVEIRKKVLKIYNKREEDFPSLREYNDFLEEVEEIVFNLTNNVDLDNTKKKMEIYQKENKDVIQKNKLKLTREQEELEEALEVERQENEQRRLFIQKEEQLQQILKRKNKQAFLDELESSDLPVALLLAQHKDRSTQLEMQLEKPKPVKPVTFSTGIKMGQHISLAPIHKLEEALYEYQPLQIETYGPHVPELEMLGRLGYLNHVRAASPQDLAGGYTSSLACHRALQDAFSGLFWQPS
Experimental: as §1, §2
CDK7 Enzymatic Activity Assay
as §3
as §4, with “6 μl CDK7/CycH/Mat1/substrate working solution” for “6 μl CDK9/cyclin T1/substrate working solution”, “rpm for 40 sec, followed” for “rpm for sec, followed”

T1 sequence (P50750 whole entry): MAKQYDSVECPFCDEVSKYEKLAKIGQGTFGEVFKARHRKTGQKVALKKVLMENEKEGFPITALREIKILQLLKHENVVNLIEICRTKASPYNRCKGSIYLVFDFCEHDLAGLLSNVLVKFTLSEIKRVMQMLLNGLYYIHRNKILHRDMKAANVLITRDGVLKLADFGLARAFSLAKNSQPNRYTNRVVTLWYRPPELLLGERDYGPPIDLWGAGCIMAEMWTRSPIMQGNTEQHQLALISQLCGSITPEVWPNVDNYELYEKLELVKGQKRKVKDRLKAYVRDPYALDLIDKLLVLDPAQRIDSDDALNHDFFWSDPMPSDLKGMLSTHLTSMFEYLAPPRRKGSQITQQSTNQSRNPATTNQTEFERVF
T1 sequence (O60563 whole entry partner): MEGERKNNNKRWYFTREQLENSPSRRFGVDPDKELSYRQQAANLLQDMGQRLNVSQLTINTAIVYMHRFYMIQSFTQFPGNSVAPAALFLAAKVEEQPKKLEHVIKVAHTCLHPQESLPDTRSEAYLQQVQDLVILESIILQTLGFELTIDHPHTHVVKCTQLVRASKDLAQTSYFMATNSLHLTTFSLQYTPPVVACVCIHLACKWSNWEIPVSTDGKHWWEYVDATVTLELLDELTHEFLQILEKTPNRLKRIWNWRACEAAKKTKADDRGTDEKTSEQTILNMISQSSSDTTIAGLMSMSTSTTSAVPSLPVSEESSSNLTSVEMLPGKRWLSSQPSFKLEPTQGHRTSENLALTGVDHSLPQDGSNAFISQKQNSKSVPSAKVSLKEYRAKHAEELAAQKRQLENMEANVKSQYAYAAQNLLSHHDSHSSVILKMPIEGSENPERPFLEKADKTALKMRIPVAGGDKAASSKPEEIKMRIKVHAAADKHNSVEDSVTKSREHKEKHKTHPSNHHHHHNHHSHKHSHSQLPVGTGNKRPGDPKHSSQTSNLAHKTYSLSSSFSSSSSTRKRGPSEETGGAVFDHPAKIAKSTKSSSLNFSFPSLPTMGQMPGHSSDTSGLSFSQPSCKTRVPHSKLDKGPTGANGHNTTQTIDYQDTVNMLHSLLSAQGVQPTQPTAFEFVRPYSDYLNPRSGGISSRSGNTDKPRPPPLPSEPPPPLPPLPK

Compound | CDK9: Selectivity of CDK7 inhibition over CDK9 inhibition [fold] (CDK9/Cyclin T1) | CDK2 IC50 range class (CDK2/CycA) | IC50 (CDK7/CycH/Mat1) [nM]
COc1ccc(C(C)Nc2nc(O[C@@H]3CCCNC3)nc3c(C(C)C)cnn23)cc1 (stereo partly drawn) [(VII-an), 8-isopropyl-N-(1-(4-methoxyphenyl)ethyl)-2-((R)-piperidin-3-yloxy)pyrazolo[1,5-a][1,3,5]triazin-4-amine] | +++ (IC50>2500 nM) | +++ (IC50>2500 nM) | > 100
CC(C)c1cnn2c(NC(C)c3ccccc3N3CCCC3)nc(O[C@@H]3CCCNC3)nc12 (stereo partly drawn) [(VII-ap), 8-isopropyl-2-((R)-piperidin-3-yloxy)-N-(1-(2-(pyrrolidin-1-yl)phenyl)ethyl)pyrazolo[1,5-a][1,3,5]triazin-4-amine] | +++ (IC50>2500 nM) | +++ (IC50>2500 nM) | > 100
CC(C)c1cnn2c(NC(C)c3ccccc3N3CCCCC3)nc(O[C@@H]3CCCNC3)nc12 (stereo partly drawn) [(VII-aq), 8-isopropyl-N-(1-(2-(piperidin-1-yl)phenyl)ethyl)-2-((R)-piperidin-3-yloxy)pyrazolo[1,5-a][1,3,5]triazin-4-amine] | +++ (IC50>2500 nM) | +++ (IC50>2500 nM) | > 100
CC(C)c1cnn2c(NC(C)c3ccccc3-c3ccccc3)nc(O[C@@H]3CCCNC3)nc12 (stereo partly drawn) [(VII-as), N-(1-([1,1′-biphenyl]-2-yl)ethyl)-8-isopropyl-2-((R)-piperidin-3-yloxy)pyrazolo[1,5-a][1,3,5]triazin-4-amine] | +++ (IC50>2500 nM) | +++ (IC50>2500 nM) | > 100
CC(C)c1cnn2c(N[C@@H](C)c3ccccc3OC(F)(F)F)nc(O[C@@H]3CCCNC3)nc12 [(VII-at), 8-isopropyl-2-((R)-piperidin-3-yloxy)-N-((S)-1-(2-(trifluoro-methoxy)phenyl)ethyl)pyrazolo[1,5-a][1,3,5]triazin-4-amine] | +++ (IC50>2500 nM) | +++ (IC50>2500 nM) | 30 to 100
CCOc1ccccc1[C@H](C)Nc1nc(O[C@@H]2CCCNC2)nc2c(C(C)C)cnn12 [(VII-aw), N-((S)-1-(2-ethoxyphenyl)ethyl)-8-isopropyl-2-((R)-piperidin-3-yloxy)pyrazolo[1,5-a][1,3,5]triazin-4-amine] | +++ (IC50>2500 nM) | +++ (IC50>2500 nM) | > 100

Other lines, results leading:

CDK9: Selectivity of CDK7 inhibition over CDK9 inhibition [fold] (CDK9/Cyclin T1) | CDK2 IC50 range class (CDK2/CycA) | IC50 (CDK7/CycH/Mat1) [nM] | Compound
+++ (IC50>2500 nM) | +++ (IC50>2500 nM) | > 100 | CC(C)c1cnn2c(NC(C)c3ccccc3C3CC3)nc(O[C@@H]3CCCNC3)nc12 (stereo partly drawn) [(VII-ao), N-(1-(2-cyclopropyl-phenyl)ethyl)-8-isopropyl-2-((R)-piperidin-3-yloxy)pyrazolo[1,5-a][1,3,5]triazin-4-amine]
+++ (IC50>2500 nM) | +++ (IC50>2500 nM) | 10 to 30 | CC(C)c1cnn2c(N[C@@H](C)c3ccccc3I)nc(O[C@@H]3CCCNC3)nc12 [(VII-au), N-((S)-1-(2-iodophenyl)ethyl)-8-isopropyl-2-((R)-piperidin-3-yloxy)pyrazolo[1,5-a][1,3,5]triazin-4-amine]
+++ (IC50>2500 nM) | +++ (IC50>2500 nM) | 10 to 30 | CC(C)c1cnn2c(N[C@@H](C)c3cccc(OC(F)(F)F)c3)nc(O[C@@H]3CCCNC3)nc12 [(VII-ay), 8-isopropyl-2-((R)-piperidin-3-yloxy)-N-((S)-1-(3-(trifluoro-methoxy)phenyl)ethyl)pyrazolo[1,5-a][1,3,5]triazin-4-amine]
